# From patent US20250041206A1, “Injectable Suspensions” (ASARINA PHARMA AB, priority 2017, published 2025)
# Assay: Recovered dose from pre-filled syringes emptied through 27G needle after storage, not resuspended (gas chromatography)
# Format: physicochemical
# Settings: suspension in pre-filled syringes during storage
# Description: Filling weight was 0.5 g with the suspension having a density of about 0.95 g/mL.
# The syringes were stored horisontally at 5° C., 25° C./60% RH and 40° C./75% RH, respectively, for up to twelve months. […] The syringes were taken directly from storage and not resuspended, mixed or shaken before ejection and assaying.
compound,measurement,value
CC(=O)[C@H]1CC[C@H]2[C@@H]3CC[C@H]4C[C@@H](O)CC[C@]4(C)[C@H]3CC[C@]12C [3-beta-hydroxy-5-alpha-pregnan-20-one],Primary particle size during storage,remained unchanged
